Among the data in PubChem BioAssay (NCI) are TGI values, retold here.

Some test systems named below: 786-0 renal; CCRF-CEM leukemia; COLO 205 colon; EKVX NSCLC; HCC-2998 colon; HOP-62 NSCLC; KM12 colon; NCI-H23 lung; OVCAR-3 ovarian; PC-3 prostate; SF-539 CNS; SK-MEL-2 melanoma; U251 CNS; UACC-257 melanoma; UACC-62 melanoma.
Common to all, as to assay: NCI tumour cell line growth inhibition, 48 h

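Assay format: 96-well plates, 48-hour exposure. TGI denotes the concentration required for complete inhibition of growth.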

Take `C=C(CC[C@@H](C)[C@H]1CC[C@@]2(C)C3=C(CC[C@]12C)[C@@]1(C)CC[C@H](O)[C@@H](C)C1CC3)C(C)C` (stereo not given in full): the TGI was 2070 nM in the test with 786-0 renal; 2220 nM in the test on CCRF-CEM leukemia; 2410 nM in the test with COLO 205 colon; 2420 nM with EKVX NSCLC; 2700 nM in the test with HCC-2998 colon; 1900 nM with HOP-62 NSCLC. In addition, the TGI stood at 2760 nM with KM12 colon; 2510 nM with NCI-H23 lung; 3.59 µM in the test with OVCAR-3 ovarian; 2280 nM in the test on PC-3 prostate; 2710 nM in the test on SF-539 CNS; 2930 nM in the test with SK-MEL-2 melanoma. Also, the figures for the TGI with U251 CNS, with UACC-257 melanoma and in the test with UACC-62 melanoma were 3.11 µM, 2700 nM and 2610 nM, respectively.
